Test systems include 786-0; BT-549; COLO 205; DU-145; HCC 2998; HL-60; HOP-92; Hs-578T; K562; MDA-N; NCI-H522; OVCAR-4; OVCAR-8; RPMI-8226; SF-268; SK-OV-3; TK-10; UACC-257; UACC-62.
Holding throughout (test): DTP human tumour cell line panel, 48 h

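Following 48 hours of exposure in 96-well plates, responses at five concentrations were used to interpolate endpoints linearly. GI50 is the concentration that inhibits growth by half.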 Activity calls are given as the source filed them. Cut-off read from the data, not from the text of the source: active = GI50 up to about 1.1 µM and inactive = higher.

The source of these data is ChEMBL document CHEMBL1201862, “PubChem BioAssay data set” (2004).

As usually defined, the GI50 is the concentration giving 50% growth inhibition. Take `O=C1c2ccccc2C(=O)c2c1oc(=O)c1ccccc21`: the GI50 was 5.35 µM (inactive) with 786-0; 4.51 µM (inactive) in the experiment with BT-549; 9.71 µM (inactive) in the experiment with COLO 205; 5.46 µM (inactive) in the experiment on DU-145; 3.21 µM (inactive) in the experiment on HCC 2998; 0.664 µM (active) with HL-60. In addition, the GI50 with HOP-92 is 5.16 µM (inactive); in the experiment with Hs-578T, 6.43 µM (inactive); in the experiment with K562 it was 4 µM (inactive); in the experiment on MDA-N, 2.2 µM (inactive); in the experiment with NCI-H522, 4.07 µM (inactive); in the experiment with OVCAR-4, 1.08 µM (active). Besides, the GI50 in the experiment with OVCAR-8 is 2 µM (inactive); in the experiment on RPMI-8226, 3.63 µM (inactive); in the experiment on SF-268, 4.34 µM (inactive); in the experiment with SK-OV-3 it was 9.25 µM (inactive); with TK-10, 8.89 µM (inactive); in the experiment on UACC-257, 3.22 µM (inactive). Also, the GI50 in the experiment on UACC-62 is 4 µM (inactive).
Regarding `c1csc(-c2cc(-c3ccsc3)cs2)c1`, the GI50 with 786-0 is 44.2 µM (inactive); in the experiment with BT-549, > 100 µM (inactive); in the experiment with COLO 205 it was > 100 µM (inactive); with DU-145, > 100 µM (inactive); in the experiment on HCC 2998, > 100 µM (inactive); in the experiment with HL-60, 74.1 µM (inactive). Moreover, the GI50 in the experiment on HOP-92 is > 100 µM (inactive); with Hs-578T it was 21 µM (inactive); with K562, > 100 µM (inactive); in the experiment with MDA-N, > 100 µM (inactive); in the experiment on OVCAR-4, 40.6 µM (inactive); in the experiment with RPMI-8226, > 100 µM (inactive). Moreover, the GI50 was > 100 µM (inactive) in the experiment on SF-268; 33.8 µM (inactive) with SK-OV-3; > 100 µM (inactive) in the experiment on TK-10; > 100 µM (inactive) with UACC-257; > 100 µM (inactive) in the experiment with UACC-62.
As for `CCOC(=O)c1cc2c3c(c(C(C)=O)c(OC)c2[nH]1)N(C(=O)CC)CC3`, the GI50 in the experiment with 786-0 is 17.5 µM (inactive); in the experiment with BT-549 it was 17.3 µM (inactive); in the experiment on COLO 205 it was 18.2 µM (inactive); in the experiment with DU-145, 15.6 µM (inactive); in the experiment with HCC 2998 it was 23.4 µM (inactive); with HL-60, 6.4 µM (inactive). The GI50 with HOP-92 is 13.5 µM (inactive); in the experiment with Hs-578T it was 19.4 µM (inactive); in the experiment with K562, 14.1 µM (inactive); in the experiment on MDA-N, 16.8 µM (inactive); in the experiment on OVCAR-4, 21.5 µM (inactive); in the experiment with OVCAR-8, 19.8 µM (inactive). Besides, the GI50 with RPMI-8226 was 5.13 µM (inactive); in the experiment on SF-268, 16.4 µM (inactive); with SK-OV-3 it was 50.1 µM (inactive); in the experiment with UACC-257, 19.4 µM (inactive); in the experiment on UACC-62, 16.3 µM (inactive).
Consider `O=C(O)c1cccc(S(=O)(=O)NN2C(=O)CSC2c2ccccc2Cl)c1` (configuration not stated), for which the GI50 in the experiment on 786-0, in the experiment on BT-549, in the experiment with COLO 205, with DU-145, in the experiment on HCC 2998 and with HL-60 was > 100 µM (inactive) throughout. Further, the GI50 in the experiment with HOP-92, in the experiment on Hs-578T, in the experiment on K562, in the experiment with MDA-N, in the experiment with NCI-H522 and with OVCAR-8 was > 100 µM (inactive) in each case. Moreover, the GI50 was 81.3 µM (inactive) in the experiment on RPMI-8226; > 100 µM (inactive) in the experiment on SF-268; > 100 µM (inactive) in the experiment on SK-OV-3; > 100 µM (inactive) with TK-10; > 100 µM (inactive) in the experiment on UACC-257; > 100 µM (inactive) in the experiment with UACC-62.
Take `CCCC(=O)N(C)/N=N/c1ccc(C(=O)OCC)cc1`: the GI50 in the experiment with 786-0, with BT-549, in the experiment on DU-145, in the experiment with HCC 2998, in the experiment with HL-60 and in the experiment with HOP-92 was > 100 µM (inactive) throughout. The GI50 with Hs-578T is > 100 µM (inactive); in the experiment on K562, > 100 µM (inactive); with MDA-N it was > 100 µM (inactive); in the experiment with NCI-H522, 52 µM (inactive); in the experiment with OVCAR-4, > 100 µM (inactive); with OVCAR-8 it was > 100 µM (inactive). For the same compound, the GI50 in the experiment on RPMI-8226, in the experiment with SF-268, in the experiment on TK-10, with UACC-257 and with UACC-62 was > 100 µM (inactive) each time.
For the compound `CC(=O)OCC1OC(n2cnc(C(N)=S)c2N)C(OC(C)=O)C1OC(C)=O` (configuration not stated), the GI50 with 786-0, in the experiment with BT-549, in the experiment on COLO 205, in the experiment on DU-145, in the experiment with HCC 2998 and with HL-60 was > 100 µM (inactive) each time. Besides, the GI50 in the experiment with HOP-92, with Hs-578T, in the experiment on MDA-N, in the experiment on NCI-H522, in the experiment with OVCAR-4 and with OVCAR-8 was > 100 µM (inactive) throughout. The GI50 in the experiment on RPMI-8226, in the experiment on SF-268, in the experiment with SK-OV-3, in the experiment on TK-10, in the experiment on UACC-257 and with UACC-62 was > 100 µM (inactive) each time.
Consider `COC(C)(C)/C=C/c1[nH]c2ccccc2c1CC(=O)NCCc1cn(C(c2ccccc2)(c2ccccc2)c2ccccc2)cn1`, for which the GI50 was 4.72 µM (inactive) in the experiment with 786-0; 7.87 µM (inactive) in the experiment on BT-549; 2.02 µM (inactive) in the experiment on COLO 205; > 31.6 µM (inactive) in the experiment on DU-145; 0.0272 µM (active) in the experiment with HCC 2998; 2.92 µM (inactive) in the experiment with HL-60. Moreover, the GI50 with HOP-92 is 5.33 µM (inactive); in the experiment with Hs-578T, 7.1 µM (inactive); in the experiment on K562 it was 3.17 µM (inactive); in the experiment with MDA-N, 4.33 µM (inactive); in the experiment with NCI-H522 it was 3.66 µM (inactive); with OVCAR-4 it was 4.9 µM (inactive). Further, the GI50 in the experiment on OVCAR-8 was 4.99 µM (inactive); with RPMI-8226 it was 2.39 µM (inactive); in the experiment on SF-268 it was 7.91 µM (inactive); with TK-10, 5.46 µM (inactive); with UACC-257 it was 4.02 µM (inactive); with UACC-62 it was 6.44 µM (inactive).
Consider `O=C1C(CN2CCCCC2)CCC1CN1CCCCC1` (configuration not stated), for which the GI50 in the experiment on 786-0 was 19.5 µM (inactive); in the experiment with BT-549 it was 19.1 µM (inactive); in the experiment on COLO 205, 14.7 µM (inactive); with DU-145, > 88.5 µM (inactive); in the experiment on HCC 2998, > 44.7 µM (inactive); with HL-60, 1.5 µM (inactive). Further, the GI50 was 23.2 µM (inactive) in the experiment with HOP-92; > 51.3 µM (inactive) in the experiment on Hs-578T; 1.2 µM (inactive) in the experiment on K562; 15 µM (inactive) in the experiment with MDA-N; 5.35 µM (inactive) in the experiment with NCI-H522; 26.8 µM (inactive) with OVCAR-8. The GI50 in the experiment with RPMI-8226 was 9.91 µM (inactive); in the experiment with SF-268, 49.8 µM (inactive); in the experiment on SK-OV-3, > 100 µM (inactive); in the experiment on TK-10, 17.8 µM (inactive); with UACC-257, 30.3 µM (inactive); with UACC-62 it was 17.3 µM (inactive).
As for `Clc1cc2nc(C3CCCCO3)[nH]c2cc1Cl` (configuration not stated), the GI50 in the experiment on 786-0 is 34 µM (inactive); in the experiment with BT-549 it was 11.1 µM (inactive); in the experiment on COLO 205, 26 µM (inactive); in the experiment on DU-145 it was 48.6 µM (inactive); in the experiment on HCC 2998, 38 µM (inactive); in the experiment on HL-60 it was 4.78 µM (inactive). For the same compound, the GI50 with HOP-92 is 35.7 µM (inactive); in the experiment on Hs-578T, 7.29 µM (inactive); in the experiment with K562, 6.47 µM (inactive); in the experiment with MDA-N it was 4.1 µM (inactive); with NCI-H522, 2.59 µM (inactive); in the experiment with OVCAR-4 it was 34.4 µM (inactive). For the same compound, the GI50 in the experiment with OVCAR-8 was 17.7 µM (inactive); in the experiment on RPMI-8226 it was 12.8 µM (inactive); in the experiment on SF-268, 27.9 µM (inactive); with SK-OV-3, 15.9 µM (inactive); with TK-10, > 77.3 µM (inactive); in the experiment with UACC-257 it was 59.2 µM (inactive). In addition, the GI50 in the experiment on UACC-62 was 24.5 µM (inactive).
Regarding `Clc1ccc(-c2nnc(-c3c(Cl)c(Cl)c(Cl)c(Cl)c3-c3nc4ccccc4[nH]3)o2)cc1`, the GI50 in the experiment with 786-0 was 50.4 µM (inactive); in the experiment with BT-549, 70.1 µM (inactive); in the experiment with COLO 205, 52.2 µM (inactive); in the experiment on DU-145, 78.2 µM (inactive); in the experiment on HCC 2998, 59 µM (inactive); in the experiment with HL-60, > 100 µM (inactive). The GI50 is 31.7 µM (inactive) with HOP-92; > 100 µM (inactive) with Hs-578T; 34.3 µM (inactive) with K562; 53.5 µM (inactive) with MDA-N; 47.9 µM (inactive) in the experiment with NCI-H522; 84.9 µM (inactive) in the experiment with OVCAR-4. Besides, the GI50 in the experiment with OVCAR-8 is 48.2 µM (inactive); in the experiment with RPMI-8226, 31.8 µM (inactive); with SF-268, > 100 µM (inactive); with SK-OV-3 it was > 100 µM (inactive); in the experiment with UACC-257 it was > 100 µM (inactive); with UACC-62 it was 63.4 µM (inactive).
Regarding `O=C1Nc2cc([N+](=O)[O-])ccc2N/C1=C/C(=O)c1ccc(Cl)cc1`, the GI50 with 786-0 was 3.13 µM (inactive); in the experiment with BT-549, 5.27 µM (inactive); in the experiment on COLO 205, 24.4 µM (inactive); in the experiment on DU-145, 6.71 µM (inactive); in the experiment on HCC 2998, 23.6 µM (inactive); in the experiment on HL-60, 19.8 µM (inactive). For the same compound, the GI50 was 16 µM (inactive) in the experiment on HOP-92; 11.5 µM (inactive) in the experiment on Hs-578T; 3.64 µM (inactive) with K562; 24.3 µM (inactive) in the experiment on MDA-N; 20.4 µM (inactive) with OVCAR-4; 8 µM (inactive) in the experiment on OVCAR-8. Further, the GI50 is 10.9 µM (inactive) in the experiment with RPMI-8226; 11.7 µM (inactive) in the experiment with SF-268; 19.4 µM (inactive) in the experiment on SK-OV-3; 3.9 µM (inactive) in the experiment with TK-10; 27.5 µM (inactive) in the experiment with UACC-257; 14.9 µM (inactive) in the experiment with UACC-62.
